Reference: PubChem BioAssay AID2060496 (Molecular Pharmacology Branch, DTP, NCI, 2025)

Test system: 276233-004-R-J1-PDC complex spheroid viability
Assay: Anticancer human tumor 276233-004-R-J1-PDC patient-derived colon adenocarcinoma cell line growth inhibition [GQUAD]
Conditions: for IC50: curve of first compound; for viability, T/C: stronger effect = lower value
Method in brief: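 Viability of tumor cells grown as complex spheroids with endothelial and stromal cells, exposed to drug combinations. Top concentration at or near clinical Cmax (else 10 microM), diluted in half-log increments.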

[1] = second compound 0.0316 µM, first compound 0.0316 µM
[2] = second compound 0.0316 µM, first compound 0.1 µM
[3] = second compound 0.0316 µM, first compound 0.316 µM
[4] = second compound 0.0316 µM, first compound 1 µM
[5] = second compound 0.0316 µM, first compound 3.16 µM
[6] = second compound 0.0316 µM, first compound 10 µM
[7] = second compound 0.1 µM, first compound 0.0316 µM
[8] = second compound 0.1 µM, first compound 0.1 µM
[9] = second compound 0.1 µM, first compound 0.316 µM
[10] = second compound 0.1 µM, first compound 1 µM
[11] = second compound 0.1 µM, first compound 3.16 µM
[12] = second compound 0.1 µM, first compound 10 µM
[13] = second compound 0.316 µM, first compound 0.0316 µM
[14] = second compound 0.316 µM, first compound 0.1 µM
[15] = second compound 0.316 µM, first compound 0.316 µM
[16] = second compound 0.316 µM, first compound 1 µM
[17] = second compound 0.316 µM, first compound 3.16 µM
[18] = second compound 0.316 µM, first compound 10 µM
[19] = second compound 1 µM, first compound 0.0316 µM
[20] = second compound 1 µM, first compound 0.1 µM
[21] = second compound 1 µM, first compound 0.316 µM
[22] = second compound 1 µM, first compound 1 µM
[23] = second compound 1 µM, first compound 3.16 µM
[24] = second compound 1 µM, first compound 10 µM
[25] = second compound 3.16 µM, first compound 0.0316 µM
[26] = second compound 3.16 µM, first compound 0.1 µM
[27] = second compound 3.16 µM, first compound 0.316 µM
[28] = second compound 3.16 µM, first compound 1 µM
[29] = second compound 3.16 µM, first compound 3.16 µM
[30] = second compound 3.16 µM, first compound 10 µM
[31] = second compound 10 µM, first compound 0.0316 µM
[32] = second compound 10 µM, first compound 0.1 µM
[33] = second compound 10 µM, first compound 0.316 µM
[34] = second compound 10 µM, first compound 1 µM
[35] = second compound 10 µM, first compound 3.16 µM
[36] = second compound 10 µM, first compound 10 µM
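Further: spheroids exposed to drugs for seven days.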
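Wherever viability, T/C is given: 100% = DMSO vehicle control viability.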

C#Cc1c(F)ccc2cc(O)cc(-c3ncc4c(N5CC6CCC(C5)N6)nc(OCC56CCCN5CC(F)C6)nc4c3F)c12 (stereo unspecified) + Cc1[nH]c2ccc(F)cc2c1-c1nc2c3cccnc3c3ncccc3c2[nH]1
IC50 (second compound 0.0316 µM): > 10000 nM | IC50 (second compound 0.1 µM): 2500 nM | IC50 (second compound 0.316 µM): 1130 nM | IC50 (second compound 1 µM): 208 nM | IC50 (second compound 3.16 µM): < 31.6 nM | IC50 (second compound 10 µM): < 31.6 nM | viability, T/C [1]: 89% | viability, T/C [2]: 85.2% | viability, T/C [3]: 89.2% | viability, T/C [4]: 71.7% | viability, T/C [5]: 57.2% | viability, T/C [6]: 51.2% | viability, T/C [7]: 80.2% | viability, T/C [8]: 80.3% | viability, T/C [9]: 82.5% | viability, T/C [10]: 73.8% | viability, T/C [11]: 44% | viability, T/C [12]: 34.1% | viability, T/C [13]: 68.4% | viability, T/C [14]: 67.4% | viability, T/C [15]: 57% | viability, T/C [16]: 56% | viability, T/C [17]: 33.8% | viability, T/C [18]: 27.4% | viability, T/C [19]: 70.3% | viability, T/C [20]: 48.7% | viability, T/C [21]: 48.7% | viability, T/C [22]: 39.7% | viability, T/C [23]: 40% | viability, T/C [24]: 26.2% | viability, T/C [25]: 19.1% | viability, T/C [26]: 14.9% | viability, T/C [27]: 12.7% | viability, T/C [28]: 13.6% | viability, T/C [29]: 9.51% | viability, T/C [30]: 17.4% | viability, T/C [31]: 35.7% | viability, T/C [32]: 41.8% | viability, T/C [33]: 35.7% | viability, T/C [34]: 34.2% | viability, T/C [35]: 28.1% | viability, T/C [36]: 15.6%

C=CCn1c(=O)c2cnc(Nc3ccc(N4CCN(C)CC4)cc3)nc2n1-c1cccc(C(C)(C)O)n1 + Cc1[nH]c2ccc(F)cc2c1-c1nc2c3cccnc3c3ncccc3c2[nH]1
IC50 (second compound 0.0316 µM): > 10000 nM | IC50 (second compound 0.1 µM): > 10000 nM | IC50 (second compound 0.316 µM): > 10000 nM | IC50 (second compound 1 µM): 104 nM | IC50 (second compound 3.16 µM): < 31.6 nM | IC50 (second compound 10 µM): < 31.6 nM | viability, T/C [1]: 98.8% | viability, T/C [2]: 86.5% | viability, T/C [3]: 71.4% | viability, T/C [4]: 67.8% | viability, T/C [5]: 66.8% | viability, T/C [6]: 66.6% | viability, T/C [7]: 79.6% | viability, T/C [8]: 79.5% | viability, T/C [9]: 64.5% | viability, T/C [10]: 48.3% | viability, T/C [11]: 61% | viability, T/C [12]: 52.7% | viability, T/C [13]: 64% | viability, T/C [14]: 58.4% | viability, T/C [15]: 60.2% | viability, T/C [16]: 41.1% | viability, T/C [17]: 56.9% | viability, T/C [18]: 61.4% | viability, T/C [19]: 53.8% | viability, T/C [20]: 53.9% | viability, T/C [21]: 48% | viability, T/C [22]: 36.4% | viability, T/C [23]: 51.7% | viability, T/C [24]: 50.4% | viability, T/C [25]: 16.3% | viability, T/C [26]: 14% | viability, T/C [27]: 28.1% | viability, T/C [28]: 18.1% | viability, T/C [29]: 20.2% | viability, T/C [30]: 23.9% | viability, T/C [31]: 36.8% | viability, T/C [32]: 35.8% | viability, T/C [33]: 32.8% | viability, T/C [34]: 26.7% | viability, T/C [35]: 30.3% | viability, T/C [36]: 35.4%

CC(=O)O[C@H]1C(=O)[C@@]2(C)[C@H]([C@H](OC(=O)c3ccccc3)[C@]3(O)C[C@H](OC(=O)[C@H](O)[C@@H](NC(=O)c4ccccc4)c4ccccc4)C(C)=C1C3(C)C)[C@]1(OC(C)=O)CO[C@@H]1C[C@@H]2O + Cc1[nH]c2ccc(F)cc2c1-c1nc2c3cccnc3c3ncccc3c2[nH]1
IC50 (second compound 0.0316 µM): > 10000 nM | IC50 (second compound 0.1 µM): > 10000 nM | IC50 (second compound 0.316 µM): > 10000 nM | IC50 (second compound 1 µM): 341 nM | IC50 (second compound 3.16 µM): < 31.6 nM | IC50 (second compound 10 µM): < 31.6 nM | viability, T/C [1]: 82.4% | viability, T/C [2]: 72% | viability, T/C [3]: 68.8% | viability, T/C [4]: 81.9% | viability, T/C [5]: 100% | viability, T/C [6]: 70.9% | viability, T/C [7]: 66.3% | viability, T/C [8]: 77.2% | viability, T/C [9]: 68.7% | viability, T/C [10]: 77.3% | viability, T/C [11]: 64.2% | viability, T/C [12]: 64.9% | viability, T/C [13]: 72.6% | viability, T/C [14]: 65.4% | viability, T/C [15]: 57.1% | viability, T/C [16]: 53.5% | viability, T/C [17]: 62.4% | viability, T/C [18]: 47.8% | viability, T/C [19]: 49.7% | viability, T/C [20]: 57% | viability, T/C [21]: 55.4% | viability, T/C [22]: 39.2% | viability, T/C [23]: 45.8% | viability, T/C [24]: 51.8% | viability, T/C [25]: 20.4% | viability, T/C [26]: 14.5% | viability, T/C [27]: 15.4% | viability, T/C [28]: 12.3% | viability, T/C [29]: 13.6% | viability, T/C [30]: 12.1% | viability, T/C [31]: 42.2% | viability, T/C [32]: 40.1% | viability, T/C [33]: 38.5% | viability, T/C [34]: 28.1% | viability, T/C [35]: 30.4% | viability, T/C [36]: 33.5%
